Data published in patent US4046878A, “Daunomycin analogues, their preparation and use” (Societa' Farmaceutici Italia S.p.A., priority 1974, dated 1977).
In brackets after ≈: the same amount, converted by molar mass. Where two headings read alike, the source gives them in different places.

How the values were obtained:
HeLa cells = assay: Viability (colony formation) of HeLa cells in vitro; format: cell-based; settings: for IC50: Homo sapiens, HeLa, colony numbers 6 days later
Method: In vitro studies were carried out on HeLa cells, maintained in Eagle medium supplemented with 10% calf serum. The cells were treated with daunomycin, adriamycin* and the Test Compound for different periods of times. The cell viability was assessed by […] of 200-300 cells/plate. Colony numbers were evaluated 6 days later.

[1] = system: Moloney Sarcoma Virus (MSV); assay: Formation of foci by Moloney Sarcoma Virus in infected mouse embryo fibroblast cultures (antiviral activity); format: cell-based
Text: In vitro test on the formation of foci by Moloney Sarcoma Virus (MSV).

[2] = system: ascites sarcoma 180 cells; assay: Ascitic tumors: survival of mice inoculated intraperitoneally with ascites sarcoma 180 cells; format: in vivo, mice (Swiss CD 1); settings: i.p.
Method: Tests were carried out on groups of 10 mice (Swiss CD 1) inoculated intraperitoneally with 1 × 10^6 ascites sarcoma 180 cells/animal. The animals were treated intraperitoneally with different concentrations of the Test Compound and adriamycin once a day following tumor implantation.
(§1) *% T/C = (mean survival time of treated mice/mean survival time of contro
**The figures in parentheses indicate the number of longterm survivors,
animals, one animal remained alive at the end of 60 days. (*) % T/C =

solid tumors = assay: Solid tumors: tumor weight in mice grafted subcutaneously with fragments of neoplastic tissue; settings: for Toxicity / % T/C (mean tumor weight) / Tumor Weight: five days; for Tumor Weight: control 3.036, in g (unit assumed); for therapeutic index (T.I.): Maximum Tolerated dose (LD 10)/Minimum effective dose (T/C 0.10)
Method: In vivo tests on the activity of the Test Compound as compared with adriamycin on solid tumors were carried out on groups of ten Swiss CD 1 mice subcutaneously grafted with fragments of neoplastic tissue and treated intravenously with the respective antibiotics for five days starting form the day following the tumor implantation.
On the tenth day, all the test animals were sacrificed and their tumors removed and weighed.
*The therapeutic index (T.I) is expressed as the ratio between the maximu
tolerated dose (LD10) and the minimum effective dose, according to
Skipper and Schmidt, Cancer Chemother, Rep. 17 : 1-128, 1962. The minimum
effective dose indicates the dose which reduces by 90% the weight of
tumors compared to controls : such 90% reduction correponds to a T/C valu
**% T/C = (mean tumor weight of treated mice/mean tumor weight of control

L 1210 leukemia cells = assay: Leukemia: survival of mice inoculated intraperitoneally with L 1210 leukemia cells; format: in vivo, BDF 1 mice; settings: for Toxicity / % T/C (mean survival time) / Average Survival Time: once; for % T/C (mean survival time) / Average Survival Time: day after implantation; for Average Survival Time: control 8
Method: The activity of the Test Compound was tested on BDF 1 mice inoculated intraperitoneally with 1×10^5 L 1210 leukemia cells/animal.
The animals were treated once, the day after tumor implantation.
as §1

[3] = system: mouse embryo fibroblast cultures; assay: Cell proliferation in uninfected mouse embryo fibroblast cultures (cytotoxic activity); settings: 3 days
[4] = read-out: ID 50, 2 hrs. treatment
[5] = read-out: ID 50, 8 hrs. treatment
[6] = Fibroblast, 72 h, read-out: % Foci (control = 100)

## CC(=O)C1(O)Cc2c(O)c3c(c(O)c2C(O[C@H]2C[C@H](N)[C@H](O)[C@H](C)O2)C1)C(=O)c1ccccc1C3=O (mixture of isomers) [Test Compound, mixture of the α-anomers of (-)daunosaminyl(-)4-demethoxydaunomycinone and (-(daunosaminyl(+)4-demethoxydaunomycinone]
HeLa cells; 2 hours of treatment
  activity on HeLa cell viability, in words: as active as adriamycin
HeLa cells; 8 hours of treatment
  inhibition of cell viability, in words: higher than the inhibition by either adriamycin or daunomycin
HeLa cells; 2 hrs. treatment, read-out: ID 50 (the source's name)
  IC50: 0.2 µg/mL
HeLa cells; 8 hrs. treatment, read-out: ID 50 (the source's name)
  IC50: 0.002 µg/mL
[1]; 3 days
  antiviral activity (MSV foci formation), in words: lesser antiviral activity than adriamycin
[1]; Fibroblast, 72 h, 0.006 γ/ml, 3 days, read-out: % Foci (control = 100)
  activity at 0.006 µg/mL: 54%
[1]; Fibroblast, 72 h, 0.0250 γ/ml, 3 days, read-out: % Foci (control = 100)
  activity at 0.025 µg/mL: 12%
[1]; Fibroblast, 72 h, 0.1 γ/ml, 3 days, read-out: % Foci (control = 100)
  activity at 0.1 µg/mL: 0%
[1]; Fibroblast, 72 h, 0.6 γ/ml, 3 days, read-out: % Foci (control = 100)
  activity at 0.6 µg/mL: 0%
[2]; Experiment 1, 1 mg/kg day
  % T/C, average survival time: 185%
  number of longterm survivors, i.e., after 60 days: 0/10
[2]; Experiment 1, 2 mg/kg day
  % T/C, average survival time: 61%
  number of longterm survivors, i.e., after 60 days: 1/10
[2]; Experiment 1, 5 mg/kg day
  % T/C, average survival time: 38%
  number of longterm survivors, i.e., after 60 days: 0/10
[2]; Experiment 2, 0.2 mg/kg day
  % T/C, average survival time: 146%
  number of longterm survivors, i.e., after 60 days: 0/10
[2]; Experiment 2, 1 mg/kg day
  % T/C, average survival time: 107%
  number of longterm survivors, i.e., after 60 days: 0/10
[2]; Experiment 2, 1.5 mg/kg day
  % T/C, average survival time: 79%
  number of longterm survivors, i.e., after 60 days: 0/10
[2]; Experiment 3, 0.12 mg/kg day
  % T/C, average survival time: 115%
  number of longterm survivors, i.e., after 60 days: 0/10
[2]; Experiment 3, 0.25 mg/kg day
  % T/C, average survival time: 188%
  number of longterm survivors, i.e., after 60 days: 1/10
[2]; Experiment 3, 0.5 mg/kg day
  % T/C, average survival time: 181%
  number of longterm survivors, i.e., after 60 days: 0/10
[2]; Experiment 3, 1 mg/kg day
  % T/C, average survival time: 223%
  number of longterm survivors, i.e., after 60 days: 1/10
[2]; once a day
  active dose relative to adriamycin, in words: active at lower doses than adriamycin
  effect on ascitic tumor growth, in words: remarkable effect on ascitic tumor growth
Solid tumors; 0.5 mg/kg i.v.
  Toxicity: 0/10
Solid tumors; 0.5 mg/kg i.v., tenth day
  % T/C (mean tumor weight): 76%
  Tumor Weight: 2.295
Solid tumors; 1 mg/kg i.v.
  Toxicity: 0/10
Solid tumors; 1 mg/kg i.v., tenth day
  % T/C (mean tumor weight): 51%
  Tumor Weight: 1.550
Solid tumors; 1 mg/kg i.v., higher non toxic dose tested, tenth day
  inhibition of the tumor growth: 50%
Solid tumors; 2 mg/kg i.v.
  Toxicity: 3/10
Solid tumors; 2 mg/kg i.v., tenth day
  % T/C (mean tumor weight): 16%
  Tumor Weight: 0.485
Solid tumors
  therapeutic index (T.I.): 3.7
L 1210 leukemia cells; 0.75 mg/kg
  Toxicity: 0/10
  % T/C (mean survival time): 156%
  Average Survival Time: 12.5
L 1210 leukemia cells; 1.5 mg/kg
  Toxicity: 1/10
  % T/C (mean survival time): 162%
  Average Survival Time: 13
L 1210 leukemia cells; 3 mg/kg
  Toxicity: 7/10
  % T/C (mean survival time): 87%
  Average Survival Time: 7
L 1210 leukemia cells; non toxic doses tested
  average survival time of treated animals, in words: increased considerably
L 1210 leukemia cells; single treatment
  active dose relative to adriamycin, in words: active at lower doses than adriamycin
[3]
  cytotoxic activity, in words: the same cytotoxic activity as adriamycin

## COc1cccc2c1C(=O)c1c(O)c3c(c(O)c1C2=O)C[C@@](O)(C(=O)CO)C[C@@H]3O[C@H]1C[C@H](N)[C@H](O)[C@H](C)O1 [Adriamycin, reference compound]
HeLa cells; [4]
  IC50: 0.2 µg/mL (≈ 0.368 µM)
HeLa cells; [5]
  IC50: 0.039 µg/mL (≈ 0.0718 µM)
[1]; [6]
  activity at 0.006 µg/mL: 26%
  activity at 0.0125 µg/mL: 0%
  activity at 0.025 µg/mL: 0%
[2]; Experiment 1, 1 mg/kg day
  % T/C, average survival time: 146%
  number of longterm survivors, i.e., after 60 days: 1/9
[2]; Experiment 1, 2 mg/kg day
  % T/C, average survival time: 400%
  number of longterm survivors, i.e., after 60 days: 5/10
[2]; Experiment 1, 5 mg/kg day
  % T/C, average survival time: 311%
  number of longterm survivors, i.e., after 60 days: 4/10
[2]; Experiment 2, 0.2 mg/kg day
  % T/C, average survival time: 107%
  number of longterm survivors, i.e., after 60 days: 0/10
[2]; Experiment 2, 1 mg/kg day
  % T/C, average survival time: 143%
  number of longterm survivors, i.e., after 60 days: 1/10
[2]; Experiment 2, 5 mg/kg day
  % T/C, average survival time: 225%
  number of longterm survivors, i.e., after 60 days: 1/10
[2]; Experiment 2, 10 mg/kg day
  % T/C, average survival time: 193%
  number of longterm survivors, i.e., after 60 days: 0/10
[2]; Experiment 3, 0.1 mg/kg day
  % T/C, average survival time: 100%
  number of longterm survivors, i.e., after 60 days: 0/10
[2]; Experiment 3, 1 mg/kg day
  % T/C, average survival time: 169%
  number of longterm survivors, i.e., after 60 days: 1/9
Solid tumors; 2.5 mg/kg i.v.
  Toxicity: 0/10
Solid tumors; 2.5 mg/kg i.v., tenth day
  % T/C (mean tumor weight): 48%
  Tumor Weight: 1.465
Solid tumors; 3.5 mg/kg i.v.
  Toxicity: 7/10
Solid tumors; 3.5 mg/kg i.v., tenth day
  % T/C (mean tumor weight): 12%
  Tumor Weight: 0.364
Solid tumors
  therapeutic index (T.I.): 1.8
L 1210 leukemia cells; 2.5 mg/kg
  Toxicity: 0/10
  % T/C (mean survival time): 156%
  Average Survival Time: 12.5
L 1210 leukemia cells; 5 mg/kg
  Toxicity: 0/10
  % T/C (mean survival time): 175%
  Average Survival Time: 14
L 1210 leukemia cells; 10 mg/kg
  Toxicity: 4/10
  % T/C (mean survival time): 200%
  Average Survival Time: 16

## COc1cccc2c1C(=O)c1c(O)c3c(c(O)c1C2=O)C[C@@](O)(C(C)=O)C[C@@H]3O[C@H]1C[C@H](N)[C@H](O)[C@H](C)O1 [Daunomycin]
HeLa cells; [4]
  IC50: 0.095 µg/mL (≈ 0.18 µM)
HeLa cells; [5]
  IC50: 0.023 µg/mL (≈ 0.0436 µM)
